# Measurements published in patent US12351574B2, “Selective ligands for modulation of GIRK channels” (Northeastern University, priority 2018, dated 2025).
# Tested on: BLA neurons (GIRK currents)
# Assay: whole-cell patch-clamp in acute brain slices, basolateral amygdala (BLA) neurons
# Assay type: cell-based, rat
# Conditions: for current response of BLA neurons (in words): −50 mV
# Method: Electrophysiological recordings from brain slices containing basolateral amygdala (BLA) neurons: Electrophysiology was performed using 150-200 g male Sprague-Dawley rats (Harlan/Envigo, Indianapolis, IN). Rats were group housed in plastic cages in standard housing conditions with ad libitum access to food and water with 12:12 light/dark cycle (lights on at 07:00 h). All experiments were conducted in accordance with the Guide for the Care and Use of Laboratory Animals (Institute for Laboratory Animal Research, The National Academies Press) and the guidelines of the IUPUI Institutional Animal Care and Use Committee. Rats were anesthetized with isoflurane and immediately decapitated. Brains were then rapidly removed, placed in ice-cold oxygenated artificial cerebrospinal fluid solution (ACSF) and coronal slices ([…]) were prepared containing the amygdala. Slices were incubated at 31° C. for 30 min and then returned to room temperature until recording. [ACSF solution in mM: 130 NaCl; 3.5 KCl; 1.1 KH2PO4; 1.3 MgCl2; 2.5 CaCl2; 30 NaHCO3; 10 glucose, 315 mOsm, 7.4 pH]. Cells were identified for recording at 40× magnification using Scientifica Slicescope microscope under DIC illumination (Scientifica, Uckfield, UK). ACSF was warmed to 30° C. and perfused at a rate of 2-3 ml/min during recordings. Compounds were added to ACSF at desired concentrations. Whole-cell patch-clamp recordings were obtained using standard techniques. Borosilicate glass electrodes (WPI, Sarasota, FL) (resistance 3-6 MΩ) were prepared and used for both recording and baclofen application. [Recording internal solution in mM: 140 K-gluconate; 2 KCl; 3 MgCl2; 10 HEPES; 5 Phosphocreatinine; 2 K-ATP; 0.2 Na-GTP, 290 mOsm, 7.4 pH]. In voltage-clamp mode, the cell was adjusted to −50 mV at the beginning of all experiments and 5 min stable baseline was established before treatment. Picospritzer II (Parker Hannifin, Hollis, NH) was utilized for local application of 100 μM GABA-B agonist baclofen in ACSF to activate GIRKs. Baseline and baclofen-induced currents were averaged from three responses per cell and analyzed using ClampFit software (Molecular Devices, San Jose, CA). […] Several control cells were subjected to baclofen at 2 min intervals for 30 min and consistent responses were observed, thus ruling out time-dependent effects.
# The inventors employed whole-cell patch-clamp recording in acute brain slices to examine the effect of GAT1508. The inventors utilized brain slices that included the basolateral amygdala (BLA), a limbic structure that has been extensively described to coordinate the acquisition and expression of fear memories. […] Next, the inventors examined the response of BLA neurons to baclofen, a GABAB-receptor agonist that induces GIRK-mediated potassium currents. […]
smiles,measurement,setting,value
"Cc1cc(NC(=O)Nc2ccc(Br)s2)n(-c2ccccc2)n1 [GAT1508, 1-(5-bromothiophen-2-yl)-3-(3-methyl-1-phenyl-1H-pyrazol-5-yl)urea]",current response of BLA neurons (in words),10 μM perfusion,did not produce responses
same,current response of BLA neurons (in words),30 μM perfusion,produced significant outward current
same,effect on baclofen-induced current in BLA neurons (in words),"10 min perfusion of 10 μM, 100 μM baclofen puff",significantly potentiated baclofen-induced current
